Test results taken from the NIST ThermoML archive (doi:10.1016/j.jct.2016.09.041).
± gives the expanded uncertainty stated by the source.

Conditions: for molar entropy: 101.33 kPa, Small (less than 1 g) adiabatic calorimetry

N[C@@H](Cc1c[nH]c2ccccc12)C(=O)O [L-tryptophan]
molar entropy [J/K/mol]
Conditions | Crystal | Crystal 1
5 K | 0.2245 ± 0.033 | –
10 K | 1.663 ± 0.25 | –
15 K | 4.49 ± 0.25 | –
20 K | 8.314 ± 0.25 | –
25 K | 12.64 ± 0.33 | –
30 K | 17.46 ± 0.5 | –
35 K | 22.45 ± 0.58 | –
40 K | 27.52 ± 0.58 | –
45 K | 32.59 ± 0.58 | –
50 K | 37.66 ± 0.58 | –
60 K | 47.73 ± 0.58 | –
70 K | 57.7 ± 0.83 | –
79.2 K | 66.6 ± 1.1 | 66.6 ± 1.1
80 K | – | 67.26 ± 1.1
90 K | – | 76.16 ± 1.2
100 K | – | 84.89 ± 1.4
110 K | – | 93.54 ± 1.4
120 K | – | 102.02 ± 1.4
130 K | – | 110.25 ± 1.4
140 K | – | 118.48 ± 1.9
150 K | – | 126.63 ± 1.9
160 K | – | 134.61 ± 2.2
170 K | – | 142.59 ± 2.2
180 K | – | 150.49 ± 2.4
190 K | – | 158.39 ± 2.4
200 K | – | 166.21 ± 2.4
210 K | – | 174.02 ± 2.7
220 K | – | 181.75 ± 2.7
230 K | – | 189.49 ± 2.9
240 K | – | 197.22 ± 3.2
250 K | – | 204.87 ± 3.2
260 K | – | 212.6 ± 3.4
270 K | – | 220.33 ± 3.4
280 K | – | 228.07 ± 3.5
290 K | – | 235.72 ± 3.7
298.15 K | – | 242.03 ± 3.7
300 K | – | 243.45 ± 3.7
310 K | – | 251.1 ± 4
320 K | – | 258.75 ± 4
330 K | – | 266.31 ± 4.2
340 K | – | 273.88 ± 4.2
350 K | – | 281.53 ± 4.5
360 K | – | 289.09 ± 4.5
370 K | – | 296.66 ± 4.7

Conditions | Triple point temperature [K]
Crystal 2, Adiabatic calorimetry | 79.2 ± 0.2
